The supplement of paper PMC11208160

Test: recombinant UMI read abundance after kanamycin selection (control-corrected) (log10(CPM+1)); higher = more efficient recombination; extreme values may be limits of the assay; sequences stand for … in AGTGCAGAGAAAATCGGCCAGTTTTCTCTGCCTGCAGTCCGCATGCCGTGGGACCCCTTGGGTTCTAACCTGTTGCCTAGATTTATGCAGCGGACTGCCTTTCTCCCAAAGTGATAAACCGG…AGGTTGGTTTCACT; site = the 11-nt donor
Protocol: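 Pooled E. coli donor-specificity screen for the IS621 bridge recombinase. Each library member carries a reprogrammed 11-nt donor and a full-length LE bridge RNA expressed in cis from the natural promoter, with a paired donor-binding loop (8-nt LDG + 4-nt RDG) and a target-binding loop fixed to T5. It is co-electroporated with a T5 target plasmid; recombinase is induced with 0.07 mM IPTG and recombinants are selected on kanamycin. UMIs are counted as CPM, averaged over two biological replicates and corrected by the unselected control. Molecule = full bridge RNA written as DNA, built from the T5 scaffold: LDG = donor specificity nt 1-8, RDG = reverse complement of nt 8-11.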
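Note: IS621 bridge recombinase in Escherichia coli cells against a fixed T5 target plasmid.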

| Sequence | recombinant UMI read abundance (log10) |
| --- | --- |
| AATCTCACATGGACCGGTTTTCCCGGTAATCCGTATTTGGA (site AATCTCACTTC) | 0.341 |
| AATCTGGCATGGACCGGTTTTCCCGGTAATCCGTATTTGTA (site AATCTGGCTTA) | 0.472 |
| AATGAGACATGGACCGGTTTTCCCGGTAATCCGTATTTGGT (site AATGAGACTAC) | 1.58 |
| AATGAGACATGGACCGGTTTTCCCGGTAATCCGTATTTGGT (site ACTGAGACTAC) | 0.724 |
| AATGAGACATGGACCGGTTTTCCCGGTAATCCGTATTTGGT (site AGTGAGACTAC) | 1.41 |
| AATGAGACATGGACCGGTTTTCCCGGTAATCCGTATTTGGT (site ATTGAGACTAC) | 0.678 |
| AATGATGCATGGACCGGTTTTCCCGGTAATCCGTATTTGGA (site AATAATGCTTC) | 1.08 |
| AATGATGCATGGACCGGTTTTCCCGGTAATCCGTATTTGGA (site AATCATGCTTC) | 1.01 |
| AATGATGCATGGACCGGTTTTCCCGGTAATCCGTATTTGGA (site AATGATGCTTC) | 1.06 |
| AATGATGCATGGACCGGTTTTCCCGGTAATCCGTATTTGGA (site AATTATGCTTC) | 0.561 |
| AATGCAACATGGACCGGTTTTCCCGGTAATCCGTATTTGCT (site AATGAAACTAG) | 0 |
| AATGCAACATGGACCGGTTTTCCCGGTAATCCGTATTTGCT (site AATGCAACTAG) | 0.00461 |
| AATGCAACATGGACCGGTTTTCCCGGTAATCCGTATTTGCT (site AATGGAACTAG) | 0 |
| AATGCAACATGGACCGGTTTTCCCGGTAATCCGTATTTGCT (site AATGTAACTAG) | 0 |
| AATGCAGCATGGACCGGTTTTCCCGGTAATCCGTATTTGGG (site AATGCAGCTCC) | 0.00829 |
| AATGCGTCATGGACCGGTTTTCCCGGTAATCCGTATTTGAC (site AATGAGTCTGT) | 0 |
| AATGCGTCATGGACCGGTTTTCCCGGTAATCCGTATTTGAC (site AATGCGTCTGT) | 2.03 |
| AATGCGTCATGGACCGGTTTTCCCGGTAATCCGTATTTGAC (site AATGGGTCTGT) | 0 |
| AATGCGTCATGGACCGGTTTTCCCGGTAATCCGTATTTGAC (site AATGTGTCTGT) | 0.269 |
| AATGGGTCATGGACCGGTTTTCCCGGTAATCCGTATTTGAC (site AATGAGTCTGT) | 0.146 |
| AATGGGTCATGGACCGGTTTTCCCGGTAATCCGTATTTGAC (site AATGCGTCTGT) | 0.826 |
| AATGGGTCATGGACCGGTTTTCCCGGTAATCCGTATTTGAC (site AATGGGTCTGT) | 2.68 |
| AATGGGTCATGGACCGGTTTTCCCGGTAATCCGTATTTGAC (site AATGTGTCTGT) | 0 |
| AATGGTGCATGGACCGGTTTTCCCGGTAATCCGTATTTGGT (site AATGGTGCTAC) | 1.04 |

| Sequence | recombinant UMI read abundance (log10) |
| --- | --- |
| AATGTAACATGGACCGGTTTTCCCGGTAATCCGTATTTGCG (site AATGTAACTAG) | 0 |
| AATGTAACATGGACCGGTTTTCCCGGTAATCCGTATTTGCG (site AATGTAACTCG) | 1.48 |
| AATGTAACATGGACCGGTTTTCCCGGTAATCCGTATTTGCG (site AATGTAACTGG) | 0 |
| AATGTAACATGGACCGGTTTTCCCGGTAATCCGTATTTGCG (site AATGTAACTTG) | 0.00267 |
| AATGTAACATGGACCGGTTTTCCCGGTAATCCGTATTTGTT (site AATGTAACTAA) | 0.321 |
| AATGTAACATGGACCGGTTTTCCCGGTAATCCGTATTTGTT (site AATGTAACTAC) | 0.00716 |
| AATGTAACATGGACCGGTTTTCCCGGTAATCCGTATTTGTT (site AATGTAACTAG) | 0.466 |
| AATGTAACATGGACCGGTTTTCCCGGTAATCCGTATTTGTT (site AATGTAACTAT) | 0.0338 |
| AATGTACCATGGACCGGTTTTCCCGGTAATCCGTATTTGCT (site AATGTAACTAG) | 0 |
| AATGTACCATGGACCGGTTTTCCCGGTAATCCGTATTTGCT (site AATGTACCTAG) | 0 |
| AATGTACCATGGACCGGTTTTCCCGGTAATCCGTATTTGCT (site AATGTAGCTAG) | 0.00499 |
| AATGTACCATGGACCGGTTTTCCCGGTAATCCGTATTTGCT (site AATGTATCTAG) | 0.926 |
| AATGTGTCATGGACCGGTTTTCCCGGTAATCCGTATTTGAG (site AATGTGTCTAT) | 1.43 |
| AATGTGTCATGGACCGGTTTTCCCGGTAATCCGTATTTGAG (site AATGTGTCTCT) | 1.82 |
| AATGTGTCATGGACCGGTTTTCCCGGTAATCCGTATTTGAG (site AATGTGTCTGT) | 0.801 |
| AATGTGTCATGGACCGGTTTTCCCGGTAATCCGTATTTGAG (site AATGTGTCTTT) | 0.832 |
| AATGTGTCATGGACCGGTTTTCCCGGTAATCCGTATTTGAT (site AATGTGTCTAT) | 1.66 |
| AATGTGTCATGGACCGGTTTTCCCGGTAATCCGTATTTGAT (site AATGTGTCTCT) | 0.003 |
| AATGTGTCATGGACCGGTTTTCCCGGTAATCCGTATTTGAT (site AATGTGTCTGT) | 0 |
| AATGTGTCATGGACCGGTTTTCCCGGTAATCCGTATTTGAT (site AATGTGTCTTT) | 0.0089 |
| AATTAGCCATGGACCGGTTTTCCCGGTAATCCGTATTTGAG (site AATTAGCCTCT) | 0.017 |
| AATTATCCATGGACCGGTTTTCCCGGTAATCCGTATTTGGA (site AATTATACTTC) | 0.126 |
| AATTATCCATGGACCGGTTTTCCCGGTAATCCGTATTTGGA (site AATTATCCTTC) | 0 |
| AATTATCCATGGACCGGTTTTCCCGGTAATCCGTATTTGGA (site AATTATGCTTC) | 0.0173 |

| Sequence | recombinant UMI read abundance (log10) |
| --- | --- |
| AATTATCCATGGACCGGTTTTCCCGGTAATCCGTATTTGGA (site AATTATTCTTC) | 0.322 |
| AATTATGCATGGACCGGTTTTCCCGGTAATCCGTATTTGGA (site AAATATGCTTC) | 1.34 |
| AATTATGCATGGACCGGTTTTCCCGGTAATCCGTATTTGGA (site AACTATGCTTC) | 1.02 |
| AATTATGCATGGACCGGTTTTCCCGGTAATCCGTATTTGGA (site AAGTATGCTTC) | 1.19 |
| AATTATGCATGGACCGGTTTTCCCGGTAATCCGTATTTGGA (site AATAATGCTTC) | 0.535 |
| AATTATGCATGGACCGGTTTTCCCGGTAATCCGTATTTGGA (site AATCATGCTTC) | 0.445 |
| AATTATGCATGGACCGGTTTTCCCGGTAATCCGTATTTGGA (site AATGATGCTTC) | 0.482 |
| AATTATGCATGGACCGGTTTTCCCGGTAATCCGTATTTGGA (site AATTAAGCTTC) | 0.54 |
| AATTATGCATGGACCGGTTTTCCCGGTAATCCGTATTTGGA (site AATTACGCTTC) | 0.439 |
| AATTATGCATGGACCGGTTTTCCCGGTAATCCGTATTTGGA (site AATTAGGCTTC) | 0.38 |
| AATTATGCATGGACCGGTTTTCCCGGTAATCCGTATTTGGA (site AATTATACTTC) | 0.816 |
| AATTATGCATGGACCGGTTTTCCCGGTAATCCGTATTTGGA (site AATTATCCTTC) | 0.447 |
| AATTATGCATGGACCGGTTTTCCCGGTAATCCGTATTTGGA (site AATTATGCTAC) | 0.0199 |
| AATTATGCATGGACCGGTTTTCCCGGTAATCCGTATTTGGA (site AATTATGCTCC) | 0.0288 |
| AATTATGCATGGACCGGTTTTCCCGGTAATCCGTATTTGGA (site AATTATGCTGC) | 0 |
| AATTATGCATGGACCGGTTTTCCCGGTAATCCGTATTTGGA (site AATTATGCTTA) | 0.00642 |
| AATTATGCATGGACCGGTTTTCCCGGTAATCCGTATTTGGA (site AATTATGCTTC) | 0.373 |
| AATTATGCATGGACCGGTTTTCCCGGTAATCCGTATTTGGA (site AATTATGCTTG) | 0 |
| AATTATGCATGGACCGGTTTTCCCGGTAATCCGTATTTGGA (site AATTATGCTTT) | 0.359 |
| AATTATGCATGGACCGGTTTTCCCGGTAATCCGTATTTGGA (site AATTATTCTTC) | 0.941 |
| AATTATGCATGGACCGGTTTTCCCGGTAATCCGTATTTGGA (site AATTCTGCTTC) | 0.313 |
| AATTATGCATGGACCGGTTTTCCCGGTAATCCGTATTTGGA (site AATTGTGCTTC) | 0.266 |
| AATTATGCATGGACCGGTTTTCCCGGTAATCCGTATTTGGA (site AATTTTGCTTC) | 0.00678 |
| AATTATGCATGGACCGGTTTTCCCGGTAATCCGTATTTGGA (site ACTTATGCTTC) | 0.937 |
